Measurements from US7495017B2, “Phosphodiesterase 4 inhibitors” (Memory Pharmaceuticals Corporation, priority 2003, dated 2009).

melting point: 149 to 151 °C
SMILES: COc1ccc(-c2ccn[nH]2)cc1O[C@@H]1CCOC1 [Example 1B, 3-[4-Methoxy-3-(3R)-tetrahydrofuranyloxyphenyl]-1H-pyrazole]
